The conditions of data set [1]: 298.15 K; 101.33 kPa; Liquid; Vibrating tube method.
Data set [2] in a line: refractive index (Na D-line) (dimensionless). The settings on record: 298.15 K; 101.33 kPa; Liquid; Standard Abbe refractometry.

Numbers after ± are expanded uncertainties.

One molecule from the NIST ThermoML archive (doi:10.1016/j.fluid.2010.05.009) can be followed below.

`CCOS(=O)(=O)[O-].CC[n+]1cccc(C)c1` [1-ethyl-3-methylpyridinium ethylsulfate]: the mass density in data set [1] came to 1219.61 ± 0.41 kg/m3. Besides, the refractive index in data set [2] worked out at 1.50591 ± 0.00038.
